Test results taken from US8492614B2, “Plant biochemical systems and uses thereof” (The Board of Trustees of the University of Illinois, priority 2007, dated 2013).
Entries after “also recorded” stand apart in the source; their conditions may differ.

Key:
[1] = tested on: soybean; test: Long-term growth and seed yield of UV-treated soybean supplemented with Phe; format: in vivo, soybean (Glycine max L.); details: Phe supplement before UV (300 nm) on day 3, grown to seed set
Protocol: Referring to FIG. 22, it was shown that treating soybean with Phe reverses the negative effects of UV-radiation. Seedlings were grown identically to that described for FIGS. 13 and 14, where soybean were supplemented with Phe (+Phe) or not (−Phe). Soybean were grown to seed set in greenhouse conditions where growth characteristics and evaluation of pods and seeds occurred during and after ripening.

[2] = target: T1, prephenate dehydratase (PD1) (Arabidopsis thaliana, UniProt Q9ZUY3); test: Prephenate dehydratase activity in Arabidopsis cell free extracts; format: biochemical; details: pre-incubation in various concentrations
T1 construct: from tissue; host or cells: aerial portions of etiolated (dark-grown) wild-type Col Arabidopsis seedlings; crude cell-free / cytosolic extract
T1 sequence (Q9ZUY3 25-424): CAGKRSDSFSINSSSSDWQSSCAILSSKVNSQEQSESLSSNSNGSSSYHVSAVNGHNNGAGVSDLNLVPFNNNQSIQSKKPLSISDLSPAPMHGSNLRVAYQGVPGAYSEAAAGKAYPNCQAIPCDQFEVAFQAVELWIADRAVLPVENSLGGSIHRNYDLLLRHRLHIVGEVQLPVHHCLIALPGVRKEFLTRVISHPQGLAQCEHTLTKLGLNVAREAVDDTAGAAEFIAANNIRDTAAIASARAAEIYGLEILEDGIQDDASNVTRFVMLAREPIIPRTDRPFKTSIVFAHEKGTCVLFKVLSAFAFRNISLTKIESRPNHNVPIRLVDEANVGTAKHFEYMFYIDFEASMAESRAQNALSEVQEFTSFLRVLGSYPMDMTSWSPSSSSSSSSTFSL
Protocol: 143:1590-1600). […] Absorbance and stability characteristics are tested at different pH concentrations between 6.8-8.0. Absorbance and stability characteristics are tested at different temperatures and durations of storage on the pigments and phenylalanine characteristics in solution for Arabidopsis and this is done for all crop plant types tested. The aerial portions of six-day-old dark grown Arabidopsis seedlings were harvested into potassium phosphate buffer (pH 7.5; 50 mM), DTT (1 mM), and plant protease cocktail (Sigma), and homogenized for 60 sec at a setting of #6 in a Polytron. Cell debris was removed by centrifugation. All steps were carried out at 4° C. All plants types would be harvested by this method between 6-8 days after planting in darkness. […] Production of phenylpyruvate was determined spectrophotometrically. […] See […] et al., Plant Physiol. 140:844-855.

[3] = tested on: etiolated Arabidopsis seedlings; test: Cotyledon natural fluorescence by deconvoluting microscopy; format: in vivo; details: 1.0 mM Phe in medium; salt stress; mutant seedlings; listed as Phe
Protocol: Fluorescent images were obtained of living unfixed seedlings 24 h post BL or ABA treatment as described in the “Plant Growth and Preparation of Tissue” section. Optical sectioning was achieved by using a Zeiss Axiovert 200M microscope (Carl Zeiss), equipped with ApoTome (collected by grid projection), and a digital camera and the 4#,6-diamino-phenylindole, fluorescein isothiocyanate, and Texas Red filter sets (Chroma). Photographs of whole cotyledon fluorescence were snapped on the same microscope set up, minus the apoTome setting.
The preparation of whole cell extracts from the areal portions of the seedlings for the quantification of Phe levels and PD1 activity levels is described in (Warpeha et al., Plant Physiol. 143:1590-1600, 2007). Phe concentration is determined by HPLC. […] Natural fluorescence of the cotyledons is visualized and quantitated by deconvoluting microscopy using a “DAPI-Long Pass” filter which allows excitation between 300-380 nm and emits with a cutoff […] 400 nm.
If the Phe produced by activated PD1 is necessary for the ability of young etiolated seedlings to respond to UV-B, salt or heat stress, then it is possible that the addition of exogenous Phe (effectively cross feeding Phe) could restore a wild type response to GCR1, GPA1 and PD1 mutants when assayed for cotyledon fluorescence and the ability to survive sub-lethal levels of UV-C. To determine if exogenous Phe can restore wild type responses to GCR1, GPA, and PD1 mutants, 1 mM Phe is added to the top agar during planting and the experiment described above specifically testing for cotyledon surface fluorescence and the ability to survive sub-lethal levels of UV-C is repeated. Serine and […] are used as negative controls in these assays.
The experiments described above for examining if GCR1, GPA1 and PD1 are required for young etiolated seedlings to respond to UV-B, salt or heat stress are performed but with ABA, ACC, JA and SA substituting for UV-B, salt and heat. For these experiments, ABA is tested at 1.0 μM dissolved in ethanol and applied as an atomized mist. […]

N[C@@H](Cc1ccccc1)C(=O)O [phenylalanine]
long-term growth, seed set and seed yield after UV treatment [1]: can reverse the negative effect on yield of UV; also recorded: serves a protective role to the plant in permitting the plant to achieve adult stage and seed set | long-term growth, seed set and seed yield after UV treatment ([1]; listed as Phe): indistinguishable from untreated seedlings; also recorded: reversal of the negative effects of UV-radiation | effect of pre-incubation on the reaction producing phenylalanine [2]: inhibited | restoration of cotyledon surface fluorescence in mutants [3]: can restore the responses in the mutants to those observed for wild type seedlings; also recorded: can restore wild type responses to AGB1 and AGG1 mutants
